Reference: paper PMC9258905, “Discovery of Quercetin and Its Analogs as Potent OXA-48 Beta-Lactamase Inhibitors” (Frontiers in Pharmacology, 2022)

Assays:
OXA-48 [1] = target: T1, OXA-48 (Klebsiella pneumoniae, UniProt Q6XEC0); assay: Enzyme inhibition assay against purified OXA-48 with nitrocefin as substrate; type: biochemical; details: for percent inhibition against OXA-48: at 50 μM compound, nitrocefin substrate, 50 µM; for IC50: purified OXA-48 12 nM, nitrocefin 200 μM, 0.1 M phosphate buffer pH 7.0, 50 mM NaHCO3, 25°C, read-out: IC50 against OXA-48
T1 construct: made in house; host or cells: E. coli BL21(DE3)
T1 sequence (Q6XEC0 23-265 limits assumed): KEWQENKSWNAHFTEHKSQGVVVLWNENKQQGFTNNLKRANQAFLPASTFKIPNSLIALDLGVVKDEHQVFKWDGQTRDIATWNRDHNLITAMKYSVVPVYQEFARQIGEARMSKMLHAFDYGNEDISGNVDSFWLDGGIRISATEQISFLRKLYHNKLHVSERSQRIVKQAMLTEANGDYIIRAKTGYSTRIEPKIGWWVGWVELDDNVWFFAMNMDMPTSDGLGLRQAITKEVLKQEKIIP
Procedure: The inhibitory activity of compounds against the purified OXA-48 was tested on a BioTek HTS reader. The reactions were conducted in 0.1 M phosphate buffer (pH 7.0) supplemented with 50 mM NaHCO3 at 25°C with a final assay volume of 100 μL. The concentrations of enzyme and substrate were 12 nM and 200 μM, respectively. The initial reaction rates in the absence and presence of the compound were monitored at 495 nm in triplicate. The inhibitor concentration causing a 50% decrease in enzyme activity (IC50) was determined by plotting the percent inhibition against the log10 of the inhibitor concentration and fitting the data in a dose–response-inhibition model using GraphPad Prism 7.0.
Quercetin is a member of the flavonoid class with diverse structures obtained from nature, some of which have been used for the treatment of infectious diseases in traditional medical systems ([Farhadi et al., 2019]). To investigate whether quercetin and other flavonoids are OXA-48 inhibitors, the enzyme inhibition assays were conducted on a BioTek HTS reader using nitrocefin as a substrate. The concentrations of enzyme and substrate were 12 nM and 200 μM, respectively. The initial hydrolysis rate of nitrocefin was monitored at 495 nm. The percentage inhibition is defined as the enzyme activity in the absence of inhibitor (100%) minus the remaining activity in the presence of inhibitor.

OXA-48 [2] = target: T1, OXA-48; assay: Inhibition kinetics (Lineweaver-Burk plots) of OXA-48-catalyzed nitrocefin hydrolysis; type: biochemical; details: for inhibition mode: Lineweaver-Burk plots, Km unchanged, Vmax decreased; for Ki: nitrocefin 25, 50, 75, 100 μM, Lineweaver-Burk
Procedure: The inhibition mode of quercetin and the inhibition constant (K i) were determined using a Lineweaver–Burk plot by fitting the initial rate versus the substrate concentration at each inhibitor concentration using SigmaPlot 12.0. The nitrocefin concentrations were 25, 50, 75, and 100 μM, respectively. The initial velocity was determined by measuring the […] as described above. All reaction rates were determined in triplicate.
To determine the inhibition mode of the flavonoids, the inhibition kinetics of quercetin, fisetin and luteolin against OXA-48 in the presence of different concentrations of substrate were determined, and the inhibition modes were determined by generating Lineweaver-Burk plots.

[3] = test system: E.coli BW25113 ∆acrA∆bamB (OXA-48); type: cell-based; details: for reduction in the piperacillin MIC: compound at 64 μg/mL; for MIC decrease for imipenem: compound at a dose of 64 μg/mL
Procedure: The recombinant plasmid containing the Pbla promoter and OXA-48 constructed above was then transformed into BW25113, BW25113 ∆acrA, BW25113 ∆bamB, and BW25113 ∆acrA∆bamB. The above strains were used to study the minimum inhibitory concentration (MIC). Antibiotic susceptibility tests were performed by the microdilution method following Clinical and Laboratory Standards Institute (CLSI) criteria ([CLSI, 2015]). Four E. coli strains expressing OXA-48 were used to assess the inhibitors. The susceptibility to piperacillin/imipenem combined with the compound at a concentration of 16 or 64 μg/mL was determined. […] Each measurement was conducted in triplicate. The fractional inhibitory concentration index (FICI) was determined according to the following formula: FICI = MIC (QT) in combination/MIC (QT) alone + MIC (PIP) in combination/MIC (PIP) alone. The drug interactions are defined as synergistic if the FICI is ≤0.5, indifferent if the FICI is >0.5 and ≤4.0, and antagonistic if the FICI is >4.0.
To investigate whether the compounds could restore the antimicrobial activity of β-lactam, the MICs of β-lactam antibiotics against resistant Gram-negative bacteria in the absence and presence of compounds (fisetin, 3′,4′,7-trihydroxyflavone, luteolin or quercetin) were determined by using published guidelines described by CLSI ([CLSI, 2015]). Specifically, we used OXA-48 producing strains E. coli BW25113, BW25113 ∆acrA, BW25113 ∆bamB, and BW25113 ∆acrA∆bamB as resistant Gram-negative bacteria. […] Imipenem, a carbapenem antibiotic, was applied at increasing concentrations ranging from 0.03 μg/mL to 4 μg/mL. The compounds were tested at 64 and 16 μg/mL.

cells = details: 50 µM fisetin/luteolin; ref Hytti et al., 2015; cited from earlier work
OXA-48 β-Lactamase = target: T2, OXA-48 β-Lactamase (Klebsiella pneumoniae, UniProt Q6XEC0); assay: Partition ratio measurement; type: biochemical; details: OXA-48 12 nM, 1 h incubation; at a 5 μM concentration of quercetin
T2 construct: made in house; host or cells: E. coli BL21(DE3)
T2 sequence (Q6XEC0 23-265 limits assumed): as above

OXA-48 [4] = target: T1, OXA-48; assay: Isothermal titration calorimetry of imipenem hydrolysis by OXA-48; type: biochemical; details: quercetin 0 to 40 µM, imipenem 1 mM, OXA-48 10 nM, 25°C
Procedure: OXA-48, imipenem, and quercetin were prepared in 30 mM Tris, 5 mM NaHCO3 (pH 7.5) supplemented with 5% DMSO. […] The solutions were degassed by centrifugation at a speed of 14,000 × g for 5 min before injection. The enzyme and inhibitor samples were preincubated for 1 h and then loaded into the sample cell. Imipenem (38 µL) in the syringe was titrated into the sample cell (210 µL) in a single injection mode. Heat flow (μcal/s) was recorded as a function of time. As a negative control, the reaction in the absence of quercetin was measured. The data were collected and analyzed with MicroCal Analysis Launcher Origin 7.0 software.
Isothermal titration calorimetry (ITC) was performed to assess the thermodynamic inhibitory effect of quercetin against OXA-48 ([Zhang et al., 2018]). […] Different concentrations of quercetin were incubated with purified OXA-48 for 1 h in 30 mM Tris, 5 mM NaHCO3 (pH 7.5). The mixtures were loaded into the sample cell (210 µL). A 38 µL of the substrate (imipenem) in the syringe was titrated into the sample cell in a single injection mode.

OXA-48 [5] = target: T1, OXA-48; assay: Surface plasmon resonance interaction analysis; type: binding; details: 12.5-200 µM quercetin over immobilized OXA-48
Procedure: Surface plasmon resonance (SPR) experiments were performed on a Biacore T100 at 25°C. The running buffer consisted of 10 mM PBS (pH 7.3), 0.5% Tween-20, and 2.5% DMSO. OXA-48 solution was prepared in a concentration of […] in 10 mM PBS (pH 7.3) and immobilized on a CM5 chip using standard amine coupling to a level of approximately 5000 RU. Quercetin was dissolved in the running buffer and tested in 2-fold dilutions ranging from 12.5 to 200 µM with an injection time of 30 s and a dissociation time of 60 s. The data were analyzed using Biacore T100 Evaluation Software 2.0.
A surface plasmon resonance (SPR) assay was then performed to investigate whether quercetin inhibited the activity of OXA-48 by directly binding to OXA-48. OXA-48 enzyme was immobilized on a CM5 sensor chip with an immobilization level of approximately 5000 RU. Quercetin was injected at different concentrations (12.5, 25, 50, 100 and 200 µM) over the protein surface.

[6] = test system: E. coli BW25113 ∆acrA∆bamB (OXA-48); assay: Growth curve with quercetin alone; type: cell-based; details: quercetin at 16 or 64 μg/mL
Text: We next performed checkerboard microdilution assays against OXA-48-positive strain BW25113 ∆acrA∆bamB (OXA-48) and OXA-48-negative strain ∆acrA∆bamB to assess the synergistic antimicrobial effect. […] The synergy effect was further verified by time-kill curves.
FIGURE 6 (A,B) Heatmap showing the growth inhibition of OXA-48-positive strain E. coli BW25113 ∆acrA∆bamB (OXA-48) (A) and OXA-48-negative strain ∆acrA∆bamB (B) in the presence of quercetin and piperacillin. (C) Time-kill curves for combination therapy of piperacillin and quercetin against E. coli BW25113 ∆acrA∆bamB (OXA-48). The concentrations of piperacillin and quercetin used in the assay were 64 and 64 μg/mL , respectively. (D) The growth curve of E. coli BW25113 ∆acrA∆bamB (OXA-48) in the absence and presence of quercetin.

[7] = test system: E. coli BW25113 ∆acrA∆bamB (OXA-48); assay: Mouse systemic infection model; type: in vivo, Kunming mice; details: 10 mg/kg each, intravenous, 1 h post infection; organs 24 h post-infection; vs untreated group
[8] = test system: ∆acrA∆bamB (OXA-48) mutant strain; assay: Cell-based screen of natural products in the presence of piperacillin; set-up: species or system E. coli
Procedure: The ∆acrA∆bamB (OXA-48) mutant strain was then used to screen for inhibitors of OXA-48. […] Approximately 150 plant natural products with a concentration of 40 μg/mL were screened in the presence of 128 μg/mL piperacillin.

mice = details: ref Sullivan et al., 1951, Taepongsorat et al., 2008; cited from earlier work

## O=c1c(O)c(-c2ccc(O)c(O)c2)oc2cc(O)ccc12 [Fisetin]
OXA-48 [1]
  percent inhibition against OXA-48: 90%
  IC50: 470 ± 30 nM
OXA-48 [1]; listed as fisetin
  percent inhibition against OXA-48: more than 50%
OXA-48 [2]
  inhibition mode: noncompetitively inhibited
  Ki: 620 ± 60 nM
[3]
  reduction in the piperacillin MIC: 2 fold
  MIC decrease for imipenem: 2 fold
cells
  toxicity to the cells: no toxicity

## O=c1c(O)c(-c2ccc(O)c(O)c2)oc2cc(O)cc(O)c12 [Quercetin]
OXA-48 [1]
  percent inhibition against OXA-48: 87%
  IC50: 1470 ± 140 nM
OXA-48 [1]; listed as quercetin
  percent inhibition against OXA-48: more than 50%
OXA-48 [2]
  inhibition mode: noncompetitively inhibited
  Ki: 1310 ± 210 nM
OXA-48 β-Lactamase
  partition ratio (I:E for greater than 90% inhibition): approximately 420
OXA-48 [4]
  reversibility of inhibition (total heat of imipenem hydrolysis): reversibly inhibited OXA-48
OXA-48 [5]
  SPR interaction with OXA-48: dose-dependent interaction
[3]
  reduction in the piperacillin MIC: 8 fold
  MIC decrease for imipenem: 2 fold
[6]
  growth of the cells: did not inhibit the growth of the cells
[7]
  bacterial load in spleen and liver: did not show a significant reduction of bacterial load
[8]; 40 μg/mL compound with 128 μg/mL piperacillin
  restoration of antibiotic activity in screen: restored antibiotic activity
[8]; in the absence of piperacillin
  bactericidal effect of the compound itself: without bactericidal effect
mice
  LD50: 160 mg/kg
